{"source": "patent US20240099214A1", "about": "“PLANT DEFENCE GENE EXPRESSION” (UPL Corporation Limited, priority 2021, published 2024)", "key": {"[1]": {"system": "Nac transcription factor 29-like (gene 8, Solyc05g007770.2)", "assay": "qRT-PCR expression of gene 8 in tomato leaves", "format": "in vivo, Tomato ecotype corbarino", "design": "key: relative expression normalized to a-tubulin housekeeping gene", "procedure": "(§1) Tomato ecotype “corbarino” reported to be susceptible to TSWV infection was used in the experiment. Plants were grown in pots in a climatic chamber with a photoperiod of 16/8 hour at 25° C.\n(§2) The viral strain (TSWV PV PV-0393) was utilized in the experiment. The virus was mechanically inoculated and propagated on tomato “corbarino”. The inoculum was prepared in an ice-cooled mortar grounding 1 gr of infected tomato tissue in 10 ml of Na-phosphate buffer 0.01M. The fresh prepared inoculum was stored in ice before use. Tomato plants at BBCH16 were dusted with Carborundum 600 mesh and selected leaves were rubbed with some droplets of inoculum. After 5 min. plants were sprayed with sterile water to remove the excess of inoculum and preserve the cell turgor.\n(§3) Four treatments were compared: i) Mock inoculated; ii) TSWV; iii) 0.25% Laminarin; iv) 0.25% Laminarin+TSWV. In the last treatment the virus was inoculated 24 hrs after the laminarin application.\n(§4) Total RNA was extracted from systemic infected tomato leaves by using the Quick-RNA Plant Kit (Zymo Research) following the manufacturer instructions. The extractions were carried out using three plants after 12 h, 24 h, 48 h, 72 h, 7 days after inoculation. Leaves were instantly frozen in liquid nitrogen after cutting to avoid any deterioration of the sample as well as any defense reaction. The RNA concentration was quantified by measuring the absorbance at 260 nm using a Nanodrop 2000 (Thermofisher). The purity of all of the RNA samples was assessed at an absorbance ratio of OD260/280 and OD260/230, while its structural integrity was checked by agarose gel electrophoresis. Only high-quality RNA with OD 260/280 and OD 260/230>2 was used for subsequent steps. Single-stranded cDNA was synthesized from 1 μg of total RNA using an iScript™ Select cDNA Synthesis Kit and random hexamers as primers (Bio-Rad, Milan, Italy), according to the manufacturer's instructions. Three biological replicates were created from the 3 leaves collected to test 15 genes. Alpha tubulin was used as reference gene.\n(§5) qPCR reactions were performed with BioRad (Applied Biosystems, Foster City, CA, USA) using SYBR R Green. Each reaction was performed in 20 μl containing 10 μl of 2× Power SYBR Green PCR Master Mix (Life Technologies), 0.2-0.3 μM primers and cDNA samples diluted 1:20. Each qPCR reaction was performed in triplicate. Reactions were run using the cycling parameter described previously (Reid et al., 2006) and the qPCR data were analyzed by the Ct method (Pfaffl, 2001). In order to analyze the qPCR data, a-tubulin gene was used as housekeeping to determine the relative expression level of the other genes analyzed in this work. For the determination of qPCR efficiency of each primer pairs, a standard curve was performed using the following cDNA dilutions: 1:4, 1:16, 1:64; 1:256 and 1:1024. Every measurement was made in triplicate. The corresponding qPCR efficiencies (E) were calculated for every primer pair with the software 7300 System SDS software (Applied Biosystems, Foster City, CA, USA) according to the equation E=(10−1/slope−1)×100 (Rutledge and Stewart, 2008).\n(§6) The significance of the differences between the gene expressions levels were compared by one-way ANOVA (p=0.01) and the means were separated by Tukey post-hoc test using SPSS ver.26 ([…])."}, "[2]": {"system": "AY093595.1 (gene 13, PR protein)", "assay": "qRT-PCR expression of gene 13 in tomato leaves", "format": "in vivo, Tomato ecotype corbarino", "design": "key: relative expression normalized to a-tubulin housekeeping gene", "procedure": "as §1, §2, §3, §4, §5, §6"}, "[3]": {"details": "Gene_13, 12 hr, treatment Laminarin"}, "[4]": {"details": "Gene_13, 12 hr, treatment Laminarin + virus"}, "[5]": {"details": "Gene_13, 24 hr, treatment Laminarin"}, "[6]": {"details": "Gene_13, 24 hr, treatment Laminarin + virus"}, "[7]": {"details": "Gene_13, 48 hr, treatment Laminarin"}, "[8]": {"details": "Gene_13, 48 hr, treatment Laminarin + virus"}, "[9]": {"details": "Gene_13, 72 hr, treatment Laminarin"}, "[10]": {"details": "Gene_13, 72 hr, treatment Laminarin + virus"}}}
{"substance": "laminarin", "values": [{"measurement": "RQ1", "setting": "[1]; 12 hr, Laminarin + virus", "value": 0.9892}, {"measurement": "RQ2", "setting": "[1]; 12 hr, Laminarin + virus", "value": 10.375}, {"measurement": "RQ3", "setting": "[1]; 12 hr, Laminarin + virus", "value": 10.132}, {"measurement": "RQ mean", "setting": "[1]; 12 hr, Laminarin + virus", "value": 10.133}, {"measurement": "RQ1", "setting": "[1]; 12 hr, Laminarin alone", "value": 0.8695}, {"measurement": "RQ2", "setting": "[1]; 12 hr, Laminarin alone", "value": 0.9166}, {"measurement": "RQ3", "setting": "[1]; 12 hr, Laminarin alone", "value": 10.042}, {"measurement": "RQ mean", "setting": "[1]; 12 hr, Laminarin alone", "value": 0.9301}, {"measurement": "RQ1", "setting": "[1]; 24 hr, Laminarin + virus", "value": 11.335}, {"measurement": "RQ2", "setting": "[1]; 24 hr, Laminarin + virus", "value": 11.617}, {"measurement": "RQ3", "setting": "[1]; 24 hr, Laminarin + virus", "value": 0.9361}, {"measurement": "RQ mean", "setting": "[1]; 24 hr, Laminarin + virus", "value": 10.771}, {"measurement": "RQ1", "setting": "[1]; 24 hr, Laminarin alone", "value": 12.571}, {"measurement": "RQ2", "setting": "[1]; 24 hr, Laminarin alone", "value": 13.299}, {"measurement": "RQ3", "setting": "[1]; 24 hr, Laminarin alone", "value": 11.584}, {"measurement": "RQ mean", "setting": "[1]; 24 hr, Laminarin alone", "value": 12.485}, {"measurement": "RQ1", "setting": "[1]; 48 hr, Laminarin + virus", "value": 13.157}, {"measurement": "RQ2", "setting": "[1]; 48 hr, Laminarin + virus", "value": 0.7588}, {"measurement": "RQ3", "setting": "[1]; 48 hr, Laminarin + virus", "value": 11.274}, {"measurement": "RQ mean", "setting": "[1]; 48 hr, Laminarin + virus", "value": 10.673}, {"measurement": "RQ1", "setting": "[1]; 48 hr, Laminarin alone", "value": 12.258}, {"measurement": "RQ2", "setting": "[1]; 48 hr, Laminarin alone", "value": 0.9690}, {"measurement": "RQ3", "setting": "[1]; 48 hr, Laminarin alone", "value": 15.958}, {"measurement": "RQ mean", "setting": "[1]; 48 hr, Laminarin alone", "value": 12.635}, {"measurement": "RQ1", "setting": "[1]; 72 hr, Laminarin + virus", "value": 48.220}, {"measurement": "RQ2", "setting": "[1]; 72 hr, Laminarin + virus", "value": 49.687}, {"measurement": "RQ3", "setting": "[1]; 72 hr, Laminarin + virus", "value": 22.018}, {"measurement": "RQ mean", "setting": "[1]; 72 hr, Laminarin + virus", "value": 39.975}, {"measurement": "RQ1", "setting": "[1]; 72 hr, Laminarin alone", "value": 24.387}, {"measurement": "RQ2", "setting": "[1]; 72 hr, Laminarin alone", "value": 43.671}, {"measurement": "RQ3", "setting": "[1]; 72 hr, Laminarin alone", "value": 32.797}, {"measurement": "RQ mean", "setting": "[1]; 72 hr, Laminarin alone", "value": 33.618}, {"measurement": "RQ1", "setting": "[2]; [3]", "value": 0.9025}, {"measurement": "RQ2", "setting": "[2]; [3]", "value": 11.021}, {"measurement": "RQ3", "setting": "[2]; [3]", "value": 12.323}, {"measurement": "RQ mean", "setting": "[2]; [3]", "value": 10.790}, {"measurement": "RQ1", "setting": "[2]; [4]", "value": 13.339}, {"measurement": "RQ2", "setting": "[2]; [4]", "value": 10.934}, {"measurement": "RQ3", "setting": "[2]; [4]", "value": 11.013}, {"measurement": "RQ mean", "setting": "[2]; [4]", "value": 11.762}, {"measurement": "RQ1", "setting": "[2]; [5]", "value": 13.750}, {"measurement": "RQ2", "setting": "[2]; [5]", "value": 14.763}, {"measurement": "RQ3", "setting": "[2]; [5]", "value": 13.300}, {"measurement": "RQ mean", "setting": "[2]; [5]", "value": 13.938}, {"measurement": "RQ1", "setting": "[2]; [6]", "value": 13.085}, {"measurement": "RQ2", "setting": "[2]; [6]", "value": 11.438}, {"measurement": "RQ3", "setting": "[2]; [6]", "value": 12.395}, {"measurement": "RQ mean", "setting": "[2]; [6]", "value": 12.306}, {"measurement": "RQ1", "setting": "[2]; [7]", "value": 31.999}, {"measurement": "RQ2", "setting": "[2]; [7]", "value": 13.498}, {"measurement": "RQ3", "setting": "[2]; [7]", "value": 29.839}, {"measurement": "RQ mean", "setting": "[2]; [7]", "value": 25.112}, {"measurement": "RQ1", "setting": "[2]; [8]", "value": 25.291}, {"measurement": "RQ2", "setting": "[2]; [8]", "value": 0.8970}, {"measurement": "RQ3", "setting": "[2]; [8]", "value": 28.993}, {"measurement": "RQ mean", "setting": "[2]; [8]", "value": 21.085}, {"measurement": "RQ1", "setting": "[2]; [9]", "value": 45.838}, {"measurement": "RQ2", "setting": "[2]; [9]", "value": 96.757}, {"measurement": "RQ3", "setting": "[2]; [9]", "value": 93.370}, {"measurement": "RQ mean", "setting": "[2]; [9]", "value": 78.655}, {"measurement": "RQ1", "setting": "[2]; [10]", "value": 53.674}, {"measurement": "RQ2", "setting": "[2]; [10]", "value": 42.556}, {"measurement": "RQ3", "setting": "[2]; [10]", "value": 49.901}, {"measurement": "RQ mean", "setting": "[2]; [10]", "value": 48.710}]}
